This passage reports Ki and MIC results from ChEMBL document CHEMBL3817792, “Targeting the Motion of Shikimate Kinase: Development of Competitive Inhibitors that Stabilize an Inactive Open Conformation of the Enzyme” (J Med Chem, 2016).

Assay [1] in a line: Inhibition of Mycobacterium tuberculosis shikimate kinase.
The target of the next assay is Shikimate kinase (Helicobacter pylori (strain ATCC 700392 / 26695) (Campylobacterpylori), UniProt P56073). The assay can be described thus: Inhibition of Helicobacter pylori shikimate kinase using shikimic acid substrate by measuring oxidation of NADH to NAD by pyruvate kinase and lactate dehydrogenase coupled enzyme assay based Dixon plot analysis.
Sequence of Shikimate kinase (P56073 whole entry): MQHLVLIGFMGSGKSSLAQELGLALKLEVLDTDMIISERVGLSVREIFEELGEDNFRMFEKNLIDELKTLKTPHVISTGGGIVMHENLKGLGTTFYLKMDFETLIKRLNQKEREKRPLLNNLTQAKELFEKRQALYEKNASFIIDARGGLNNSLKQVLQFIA
A short description of assay [2]: Inhibition of Mycobacterium tuberculosis shikimate kinase using shikimic acid substrate by measuring oxidation of NADH to NAD by pyruvate kinase and lactate dehydrogenase coupled enzyme assay based Dixon plot analysis.
The next assay relates to Helicobacter pylori. The assay can be described thus: Antimicrobial activity against Helicobacter pylori clinical isolates assessed as inhibition of visible microbial growth incubated for 6 days by agar dilution method. Type of assay: functional. The settings on record: 144 h.

As usually defined, the Ki is a dissociation constant, usually derived from enzyme kinetics or from competition with a known ligand. Higher therefore signals a looser hold on the target. The term MIC denotes the lowest concentration that inhibits growth of the organism.

SMILES strings stand for the structures.

Take `N[C@H]1C=C(C(=O)O)C[C@@H](O)[C@@H]1O`: the Ki in assay [1] was 65 µM. For `N[C@H]1C=C(C(=O)O)C[C@@H](OCc2ccc3ccccc3c2)[C@@H]1O`, the values for the Ki (at Shikimate kinase; in assay [2]) were above 800 µM and above 2000 µM, respectively. The like results for `Cc1ccc(CO[C@@H]2CC(C(=O)O)=C[C@@H](O)[C@H]2O)cc1` were, in that order, 10.9 µM and 166 µM. In the case of `COC(=O)C1=C[C@@H](O)[C@H](O)[C@H](OCc2cccc([N+](=O)[O-])c2)C1`, the MIC with Helicobacter pylori was found to be 128 µg/mL.

On to `O=C(O)C1=C[C@@H](O)[C@@H](O)[C@H](OCc2cccc([N+](=O)[O-])c2)C1`, for which the Ki was 0.46 µM on Shikimate kinase and 10 µM in assay [2].

On to `COc1cccc(CO[C@@H]2CC(C(=O)O)=C[C@@H](O)[C@H]2O)c1`, for which the Ki was determined as 1 µM at Shikimate kinase and 135 µM in assay [2].

As for `COC(=O)C1=C[C@@H](O)[C@@H](O)[C@H](n2cc(Cc3ccccc3)nn2)C1`, the MIC in the assay with Helicobacter pylori is 256 µg/mL. The same measure, in the same setting: with `COC(=O)C1=C[C@@H](O)[C@@H](O)[C@H](OCc2ccc3sccc3c2)C1` the figure was 4 µg/mL. As to `O=C(O)C1=C[C@@H](O)[C@@H](O)[C@H](n2cc(COc3ccccc3)nn2)C1`, the Ki at Shikimate kinase is 67 µM; in assay [2] it was above 2000 µM. On to `Cc1cccc(CO[C@@H]2CC(C(=O)O)=C[C@@H](O)[C@H]2O)c1`, for which the Ki at Shikimate kinase worked out at 2.1 µM; in assay [2], 109 µM. The like results for `O=C(O)C1=C[C@@H](O)[C@@H](O)[C@H](OCc2ccccc2)C1` were, in that order, 3 µM and 360 µM. `O=C(O)C1=C[C@@H](O)[C@@H](O)[C@H](OCc2ccc3sccc3c2)C1`: the Ki at Shikimate kinase came to 0.56 µM; in assay [2], 43 µM. Turning to `COC(=O)C1=C[C@H](N)[C@@H](O)[C@H](OCc2ccc3ccccc3c2)C1`, the MIC in the assay on Helicobacter pylori worked out at 64 µg/mL. As to `O=C(O)C1=C[C@@H](O)[C@@H](O)[C@H](OCc2c(F)c(F)c(F)c(F)c2F)C1`, the Ki on Shikimate kinase was 41 µM; in assay [2], 710 µM. The like results for `N[C@H]1C=C(C(=O)O)C[C@@H](OCc2ccc3sccc3c2)[C@@H]1O` were, in that order, 535 µM and 415 µM. In the case of `COC(=O)C1=C[C@H](N)[C@@H](O)[C@H](OCc2ccc3sccc3c2)C1`, the MIC with Helicobacter pylori is 256 µg/mL.

Consider `COC(=O)C1=C[C@@H](O)[C@@H](O)[C@H](n2cc(COc3ccccc3)nn2)C1`, for which the MIC in the assay with Helicobacter pylori was 128 µg/mL. As to `O=C(O)C1=C[C@@H](O)[C@@H](O)[C@H](OCc2cccc(F)c2)C1`, the Ki at Shikimate kinase is 1.28 µM; in assay [2], 180 µM.

Take `O=C(O)C1=C[C@@H](O)[C@@H](O)[C@H](OCc2ccc3ccccc3c2)C1`: the Ki is 1.8 µM at Shikimate kinase and 22 µM in assay [2]. In the case of `O=C(O)C1=C[C@@H](O)[C@@H](O)[C@H](n2cc(Cc3ccccc3)nn2)C1`, the Ki on Shikimate kinase is 95 µM; in assay [2], above 2000 µM.

As for `CC1(C)S[C@@H]2[C@H](NC(=O)[C@H](N)c3ccccc3)C(=O)N2[C@H]1C(=O)O` [AMPICILLIN], the MIC in the assay with Helicobacter pylori came to 1 µg/mL.
